Test results: publication PMC6433232, “Targeting mitochondria in cancer therapy could provide a basis for the selective anti-cancer activity” (PLoS ONE, 2019)
Several values for one entry are separate records, joined by “and”; a condition that tells them apart may be missing. Equal values may be shown once. Read-outs that look alike come from different tables or passages of the source.

Test system: primary acute myeloid leukemia (AML) cells obtained from patients
Test: Kinase inhibitor library screening with and without NSC130362, primary AML cells
Format: cell-based, Human
[1] = ratio of EC50 for inhibitor to EC50 for inhibitor/NSC130362 combination, NSC130362 10 μM, Screen N 2
[2] = ratio of EC50 for inhibitor to EC50 for inhibitor/NSC130362 combination, NSC130362 10 μM, Screen N 1
[3] = ratio of EC50 for inhibitor to EC50 for inhibitor/NSC130362 combination, NSC130362 10 μM, Screen N 3

Row | EC50 decrease, fold (Screen N 2) [1] [fold] | EC50 decrease, fold (Screen N 1) [2] [fold] | EC50 decrease, fold (Screen N 3) [3] [fold] | Structure (SMILES) | EC50 decrease, fold (Screen N 1) | EC50 decrease, fold (Screen N 2) [fold] | EC50 decrease, fold (Screen N 3) [fold]
1 | 1.0 | 1.0 | 0.16 | Cc1ccccc1C(C(=O)NC1CCCCC1)N(C(=O)Cn1ccnc1C)c1cccc(F)c1 (stereo not shown) [AGI-5198] | – | – | –
2 | 1.0 | 1.0 | 17.0 | O=C(Nc1cccc(C(F)(F)F)c1)Nc1cc(S(=O)(=O)NC2CC2)ccc1-c1ccsc1 [AGI-6780] | – | – | –
3 | 1.0 | – | – | Cc1[nH]c2ccc(F)cc2c1-c1nc2c3cccnc3c3ncccc3c2[nH]1 [APTO-253] | – | – | –
4 | 1.0 | – | – | Oc1ccc([C@H]2COc3cc(O)ccc3C2)cc1 [AUS-131] | – | – | –
5 | 1.0 | 497.3 | 0.365 | Cc1cc(Nc2nc(N[C@@H](C)c3ncc(F)cn3)ncc2Cl)n[nH]1 [AZD1480] | – | – | –
6 | 0.7 | 4.0 | 8.8 | Cn1c(=O)n(-c2ccc(C(C)(C)C#N)cc2)c2c3cc(-c4cnc5ccccc5c4)ccc3ncc21 [BEZ235] | – | – | –
7 | 1.0 | 1.2 | 0.01 | Cc1ccc2nc(NCCN)c3ncc(C)n3c2c1 [BMS-345541] | – | – | –
8 | 1.0 | 1.0 | 1.0 | Cc1c[nH]c(-c2cnc(NCCNc3ccc(C#N)cn3)nc2-c2ccc(Cl)cc2Cl)n1 [CHIR-99021] | – | – | –
9 | 0.8 | – | – | Cc1noc2c1-c1ccccc1C(c1ccc(Cl)cc1)=N[C@H]2CC(N)=O [CPI-0610] | – | – | –
10 | 1.0 | 0.117 | 320.1 | N#CCNC(=O)c1ccc(-c2ccnc(Nc3ccc(N4CCOCC4)cc3)n2)cc1 [CYT387] | – | – | –

Continued, compound first:

Row | Structure (SMILES) | EC50 decrease, fold (Screen N 2) [1] [fold] | EC50 decrease, fold (Screen N 1) [2] [fold] | EC50 decrease, fold (Screen N 3) [3] [fold] | EC50 decrease, fold (Screen N 1) | EC50 decrease, fold (Screen N 2) [fold] | EC50 decrease, fold (Screen N 3) [fold]
11 | Nc1ncnc2c1nc(Cl)n2[C@@H]1O[C@H](CO)[C@@H](O)[C@H]1O [8-cl-Adenosine] | 1.0 | – | – | – | – | –
12 | C=CCNC1=C2C[C@@H](C)C[C@H](OC)[C@H](O)[C@@H](C)/C=C(\C)[C@H](OC(N)=O)[C@@H](OC)/C=C\C=C(/C)C(=O)NC(=CC1=O)C2=O [17-AAG (Tanespimycin)] | 12.1 | 10.6 | 612.9 | – | – | –
13 | Cc1[nH]nc2ccc(-c3cncc(OC[C@@H](N)Cc4ccccc4)c3)cc12 [A-674563] | 1.2 | 3.1 | 6.2 | – | – | –
14 | CC1(C)CCC(CN2CCN(c3ccc(C(=O)NS(=O)(=O)c4ccc(NCC5CCOCC5)c([N+](=O)[O-])c4)c(Oc4cnc5[nH]ccc5c4)c3)CC2)=C(c2ccc(Cl)cc2)C1 [ABT-199 (BH3 mimetic)] | 1.0 | 7.4 | 9.4 | – | – | –
15 | CN(C)CC[C@H](CSc1ccccc1)Nc1ccc(S(=O)(=O)NC(=O)c2ccc(N3CCN(Cc4ccccc4-c4ccc(Cl)cc4)CC3)cc2)cc1[N+](=O)[O-] [ABT-737] | 1.0 | 5.4 | 0.000857 | – | – | –
16 | O=C(NC1CCNCC1)c1[nH]ncc1NC(=O)c1c(Cl)cccc1Cl [AT7519] | 2.2 | 9.7 | 1.1 | – | – | –
17 | CN(C)C/C=C/C(=O)Nc1cc2c(Nc3ccc(F)c(Cl)c3)ncnc2cc1O[C@H]1CCOC1 [Afatinib (BIBW-2992)] | – | – | – | 0.5 fold | 1.2 | 18.4
18 | COc1cc(Nc2ncc3c(n2)-c2ccc(Cl)cc2C(c2c(F)cccc2OC)=NC3)ccc1C(=O)O [Alisertib (MLN8237)] | 1.0 | 1.0 | 0.3 | – | – | –
19 | Nc1ncn([C@@H]2O[C@H](CO)[C@@H](O)[C@H]2O)c(=O)n1 [Azacytidine] | 1.0 | 1.1 | 266.4 | – | – | –
20 | CCN(CCO)CCCOc1ccc2c(Nc3cc(CC(=O)Nc4cccc(F)c4)[nH]n3)ncnc2c1 [Barasertib (AZD1152-HQPA)] | 1.0 | 1.0 | 642.8 | – | – | –
21 | CC(C)(C)c1ccc(S(=O)(=O)/C=C/C#N)cc1 [Bay 11-7085] | 1.0 | 69.0 | 221.9 | – | – | –
22 | COc1cc(Nc2c(C#N)cnc3cc(OCCCN4CCN(C)CC4)c(OC)cc23)c(Cl)cc1Cl [Bosutinib (SKI-606)] | 1.0 | 15.8 | 29.6 | – | – | –
23 | COc1cc(N2CCC(N3CCN(C)CC3)CC2)ccc1Nc1ncc(Cl)c(Nc2ccccc2P(C)(C)=O)n1 [Brigatininb (AP-26113)] | – | 0.0179 | 1.8 | – | – | –
24 | O=C(NOCC1CC1)c1ccc(F)c(F)c1Nc1ccc(I)cc1Cl [CI-1040 (PD184352)] | 1.0 | 0.9 | 0.0667 | – | – | –
25 | COc1cc2nccc(Oc3ccc(NC(=O)C4(C(=O)Nc5ccc(F)cc5)CC4)cc3)c2cc1OC [Cabozantinib (XL-184)] | 1.0 | 3.2 | 0.259 | – | – | –
26 | C=CC(=O)Nc1cc2c(Nc3ccc(F)c(Cl)c3)ncnc2cc1OCCCN1CCOCC1 [Canertinib (CI-1033)] | 0.7 | 2.8 | 424.3 | – | – | –
27 | COc1cc2c(Oc3ccc4[nH]c(C)cc4c3F)ncnc2cc1OCCCN1CCCC1 [Cediranib (AZD2171)] | 1.0 | 8.3 | 0.00538 | – | – | –
28 | O=C(c1ccc(F)c(F)c1Nc1ccc(I)cc1F)N1CC(O)([C@@H]2CCCCN2)C1 [Combimetinib (GDC-0973)] | 0.6 | – | – | – | – | –
29 | C[C@@H](Oc1cc(-c2cnn(C3CCNCC3)c2)cnc1N)c1c(Cl)ccc(F)c1Cl [Crizotinib (PF-2341066)] | – | – | – | 11.4 fold and 6.3 fold | 1.0 | –
30 | Nc1ccn([C@@H]2O[C@H](CO)[C@@H](O)[C@@H]2O)c(=O)n1 [Cytarabine] | 1.0 | 28.6 | 0.132 | – | – | –
31 | C[C@H](NC(=O)Cc1cc(F)cc(F)c1)C(=O)N[C@@H]1C(=O)N(C)c2ccccc2-c2ccccc21 [DBZ] | 1.0 | 0.951 | 0.374 | – | – | –
32 | Cc1nc(Nc2ncc(C(=O)Nc3c(C)cccc3Cl)s2)cc(N2CCN(CCO)CC2)n1 [Dasatinib] | 1.0 | – | – | – | – | –
33 | Cc1ccc(-n2nc(C(C)(C)C)cc2NC(=O)Nc2ccc(OCCN3CCOCC3)c3ccccc23)cc1 [Doramapimod (BIRB 796)] | 1.0 | 0.15 | 511.2 | – | – | –
